Data reported in patent US10836764B2, “5-HT2C receptor agonists and compositions and methods of use” (Arena Pharmaceuticals, Inc., priority 2016, dated 2020).
Where two headings read alike, the source gives them in different places.

Tests used:
5-HT2B receptor = 5-HT2B receptor (Homo sapiens (Human), UniProt P41595); assay: IP accumulation assay, 5-HT2B; assay type: cell-based
Procedure: (§1) HEK293 cells expressing recombinant 5-HT2 receptors were added to sterile poly-D-lysine-coated 96-well microtiter plates (35,000 cells/well) and labeled with 0.6 μCi/well of [^3H]inositol in myoinositol-free DMEM for 18 h. Unincorporated [^3H]inositol was removed by aspiration and replaced with fresh myoinositol-free DMEM supplemented with LiCl (10 mM final) and pargyline (10 μM final). Serially diluted test compounds were then added and incubation was conducted for 2 h at 37° C. (5-HT2B, and 5-HT2A) and RT (5-HT2C). Incubations were then terminated by lysing cells with the addition of ice-cold 0.1 M formic acid followed by freezing at −80° C. After thawing, total [^3H]inositol phosphates were resolved from [^3H]inositol using AG1-X8 ion exchange resin (Bio-Rad) and [^3H]inositol phosphates were measured by scintillation counting using a Perkin Elmer TopCount® scintillation counter. All EC50 determinations were performed using 10 different concentrations and triplicate determinations were made at each test concentration.

5-HT2C receptor = 5-HT2C receptor (Homo sapiens (Human), UniProt P28335); assay: IP accumulation assay, 5-HT2C; assay type: cell-based
Procedure: as §1

5-HT2A receptor [1] = biological target: T1, 5-HT2A receptor (Homo sapiens (Human), UniProt P28223); assay: IP accumulation assay, 5-HT2A; assay type: cell-based
Procedure: as §1

5-HT2A receptor [2] = biological target: T1, 5-HT2A receptor; assay: DOI radioligand binding assay, 5-HT2A; conditions: [125I]DOI competition, HEK293 cell membranes; read-out: DOI Binding 5HT2A
Procedure: For the compounds of Table A, the following procedure was used. HEK293 cells stably expressing recombinant 5-HT2 receptors were harvested, suspended in ice-cold phosphate buffered saline, pH 7.4 (PBS), and then centrifuged at 48,000 g for 20 min at 4° C. The resulting cell pellet was then re-suspended in wash buffer containing 20 mM HEPES, pH 7.4 and 0.1 mM EDTA, homogenized on ice using a Brinkman Polytron, and centrifuged (48,000 g for 20 min at 4° C.). The pellet was then resuspended in 20 mM HEPES, pH 7.4, homogenized on ice, and centrifuged (48,000 g for 20 min at 4° C.). Crude membrane pellets were stored at −80° C. until used for radioligand binding assays.
For the compounds of Table A, the following procedure was used. […] Experiments comprised addition of 95 μL of assay buffer (20 mM HEPES, pH 7.4, 10 mM MgCl2), 50 μL of membranes, 50 μL of radioligand stock, and 5 μL of test compound diluted in assay buffer to 96-well microtiter plates, which were then incubated for 1 h at room temperature. Assay incubations were terminated by rapid filtration through PerkinElmer F/C filtration plates under reduced pressure using a 96-well Packard filtration apparatus, followed by washing three times with ice cold assay buffer. Plates were then dried at 45° C. for a minimum of 2 h. Finally, 25 μL of BetaScint™ scintillation cocktail was added to each well and the plates were counted in a Packard TopCount® scintillation counter. In each competition study, test compounds were dosed at ten concentrations with triplicate determinations at each test concentration.

[3] = IP accumulation, HEK293 cells, 2 h at 37° C., read-out: EC50 5HT2B
[4] = IP accumulation, HEK293 cells, 2 h at RT, read-out: EC50 5HT2C
[5] = IP accumulation, HEK293 cells, 2 h at 37° C., read-out: EC50 5HT2A

T1 sequence (P28223 whole entry): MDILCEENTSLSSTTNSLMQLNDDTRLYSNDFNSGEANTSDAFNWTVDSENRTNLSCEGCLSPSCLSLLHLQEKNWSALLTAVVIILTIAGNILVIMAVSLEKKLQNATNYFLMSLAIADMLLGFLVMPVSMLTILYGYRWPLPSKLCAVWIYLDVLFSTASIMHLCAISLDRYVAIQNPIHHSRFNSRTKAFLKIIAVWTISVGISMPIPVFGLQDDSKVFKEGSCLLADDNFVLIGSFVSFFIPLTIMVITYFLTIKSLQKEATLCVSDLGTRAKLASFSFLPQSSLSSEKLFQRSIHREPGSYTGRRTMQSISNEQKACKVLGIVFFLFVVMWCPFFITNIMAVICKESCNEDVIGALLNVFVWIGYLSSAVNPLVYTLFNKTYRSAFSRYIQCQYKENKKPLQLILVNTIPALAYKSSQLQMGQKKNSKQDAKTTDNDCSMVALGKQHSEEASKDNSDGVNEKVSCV
Chain of 5-HT2C receptor (P28335 33-458): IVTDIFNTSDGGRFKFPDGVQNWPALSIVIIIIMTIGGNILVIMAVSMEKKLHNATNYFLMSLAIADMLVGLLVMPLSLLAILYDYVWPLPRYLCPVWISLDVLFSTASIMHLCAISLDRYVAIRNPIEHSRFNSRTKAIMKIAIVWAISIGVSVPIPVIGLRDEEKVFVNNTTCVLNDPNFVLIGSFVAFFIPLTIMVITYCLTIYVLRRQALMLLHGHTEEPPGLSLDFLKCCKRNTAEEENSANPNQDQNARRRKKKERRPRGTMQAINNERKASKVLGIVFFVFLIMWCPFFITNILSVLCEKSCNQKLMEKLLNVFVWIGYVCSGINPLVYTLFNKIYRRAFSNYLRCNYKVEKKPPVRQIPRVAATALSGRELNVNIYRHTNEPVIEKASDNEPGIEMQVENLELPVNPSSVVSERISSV
Chain of 5-HT2B receptor (P41595 whole entry): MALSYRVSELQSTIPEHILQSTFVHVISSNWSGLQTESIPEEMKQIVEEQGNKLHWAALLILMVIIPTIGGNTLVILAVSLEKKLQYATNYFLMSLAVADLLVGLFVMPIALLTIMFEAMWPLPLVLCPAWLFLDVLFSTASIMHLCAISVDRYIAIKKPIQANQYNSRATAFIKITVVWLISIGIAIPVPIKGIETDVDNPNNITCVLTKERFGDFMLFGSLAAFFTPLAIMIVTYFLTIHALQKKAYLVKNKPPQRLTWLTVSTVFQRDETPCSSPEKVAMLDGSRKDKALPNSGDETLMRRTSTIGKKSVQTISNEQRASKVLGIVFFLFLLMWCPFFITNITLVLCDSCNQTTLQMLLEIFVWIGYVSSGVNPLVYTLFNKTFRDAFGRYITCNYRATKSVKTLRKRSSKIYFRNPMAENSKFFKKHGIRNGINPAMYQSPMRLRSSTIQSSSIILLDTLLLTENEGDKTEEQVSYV

| Compound | EC50 (5-HT2B receptor; [3]) | EC50 (5-HT2C receptor; [4]) | EC50 (5-HT2A receptor [1]) | EC50 (5-HT2A receptor [1]; [5]) | Ki (5-HT2A receptor [2]) | EC50 (5-HT2B receptor) | EC50 (5-HT2C receptor) |
| --- | --- | --- | --- | --- | --- | --- | --- |
| c1cc(-c2ccc3c(c2)OCO3)c2c(n1)N1CCNC[C@H]1CC2 [Compound 101, (R)-4-(benzo[d][1,3]dioxol-5-yl)-6,6a,7,8,9,10-hexahydro-5H-pyrazino[1,2-a][1,8]naphthyridine] | ≥ 100 µM | 7.51 µM | ≥ 100 µM |  |  |  |  |
| CNC(=O)c1ccnc2c1CC[C@@H]1CNCCN21 [Compound 102, (R)-N-methyl-6,6a,7,8,9,10-hexahydro-5H-pyrazino[1,2-a][1,8]naphthyridine-4-carboxamide] | ≥ 100 µM | 100 µM | ≥ 100 µM |  |  |  |  |
| O=C(Nc1ccnc2c1CC[C@@H]1CNCCN21)c1ccccc1Cl [Compound 104, (R)-2-chloro-N-(6,6a,7,8,9,10-hexahydro-5H-pyrazino[1,2-a][1,8]naphthyridin-4-yl)benzamide] | ≥ 100 µM | 100 µM | ≥ 100 µM |  |  |  |  |
| FC(F)(F)Oc1cccc(-c2ccnc3c2CC[C@@H]2CNCCN32)c1 [Compound 105, (R)-4-(3-(trifluoromethoxy)phenyl)-6,6a,7,8,9,10-hexahydro-5H-pyrazino[1,2-a][1,8]naphthyridine] | ≥ 100 µM | 3.07 µM |  | ≥ 100 µM |  |  |  |
| CCCC(C)c1ccnc2c1CC[C@@H]1CNCCN21 (stereo partly drawn) [Compound 109, (6aR)-4-(pentan-2-yl)-6,6a,7,8,9,10-hexahydro-5H-pyrazino[1,2-a][1,8]naphthyridine] |  |  |  |  | 0.0259 µM |  |  |
| CCOC(=O)Nc1ccnc2c1CC[C@@H]1CNCCN21 [Compound 123, (R)-ethyl(6,6a,7,8,9,10-hexahydro-5H-pyrazino[1,2-a][1,8]naphthyridin-4-yl)carbamate] | ≥ 100 µM | 0.898 µM | ≥ 100 µM |  |  |  |  |
| O=C(Cc1ccccc1)Nc1ccnc2c1CC[C@@H]1CNCCN21 [Compound 124, (R)-N-(6,6a,7,8,9,10-hexahydro-5H-pyrazino[1,2-a][1,8]naphthyridin-4-yl)-2-phenylacetamide] | ≥ 100 µM | 3.66 µM | ≥ 100 µM |  |  |  |  |
| CCCC(=O)Nc1ccnc2c1CC[C@@H]1CNCCN21 [Compound 125, (R)-N-(6,6a,7,8,9,10-hexahydro-5H-pyrazino[1,2-a][1,8]naphthyridin-4-yl)butyramide] | ≥ 100 µM | 100 µM | ≥ 100 µM |  |  |  |  |
| c1cc(C2CCCCC2)c2c(n1)N1CCNC[C@H]1CC2 [Compound 127, (R)-4-cyclohexyl-6,6a,7,8,9,10-hexahydro-5H-pyrazino[1,2-a][1,8]naphthyridine] | 0.919 µM | 1.51 µM | 9.07 µM |  |  |  |  |
| O=C(Nc1ccnc2c1CC[C@@H]1CNCCN21)N1CCCC1 [Compound 131, (R)-N-(6,6a,7,8,9,10-hexahydro-5H-pyrazino[1,2-a][1,8]naphthyridin-4-yl)pyrrolidine-1-carboxamide] | ≥ 100 µM | 100 µM | ≥ 100 µM |  |  |  |  |
| FC(F)(F)c1ccccc1-c1ccnc2c1CC[C@@H]1CNCCN21 [Compound 134, (R)-(2-(trifluoromethyl)phenyl)-6,6a,7,8,9,10-hexahydro-5H-pyrazino[1,2-a][1,8]naphthyridine] | 1.73 µM | 5.61 µM | ≥ 100 µM |  |  |  |  |
| COc1ccc(-c2ccnc3c2CC[C@@H]2CNCCN32)cc1 [Compound 135, (R)-4-(4-methoxyphenyl)-6,6a,7,8,9,10-hexahydro-5H-pyrazino[1,2-a][1,8]naphthyridine] | ≥ 100 µM | 5.41 µM | ≥ 100 µM |  |  |  |  |
| O=C(Nc1ccnc2c1CC[C@@H]1CNCCN21)c1cccc(F)c1F [Compound 138, (R)-2,3-difluoro-N-(6,6a,7,8,9,10-hexahydro-5H-pyrazino[1,2-a][1,8]naphthyridin-4-yl)benzamide] | ≥ 100 µM | 5.82 µM |  | ≥ 100 µM |  |  |  |
| O=C(Nc1ccnc2c1CC[C@@H]1CNCCN21)c1ccccc1 [Compound 139, (R)-N-(6,6a,7,8,9,10-hexahydro-5H-pyrazino[1,2-a][1,8]naphthyridin-4-yl)benzamide] | ≥ 100 µM | 100 µM | ≥ 100 µM |  |  |  |  |
| O=C(NCC(F)F)c1ccnc2c1CC[C@@H]1CNCCN21 [Compound 140, (R)-N-(2,2-difluoroethyl)-6,6a,7,8,9,10-hexahydro-5H-pyrazino[1,2-a][1,8]naphthyridine-4-carboxamide] | ≥ 100 µM | 4.62 µM | ≥ 100 µM |  |  |  |  |
| O=C(Nc1ccnc2c1CC[C@@H]1CNCCN21)C1CC1 [Compound 141, (R)-N-(6,6a,7,8,9,10-hexahydro-5H-pyrazino[1,2-a][1,8]naphthyridin-4-yl)cyclopropanecarboxamide] | ≥ 100 µM | 100 µM | ≥ 100 µM |  |  |  |  |
| c1cnc2c(c1)CC[C@@H]1CNCCN21 [Compound 148, (R)-6,6a,7,8,9,10-hexahydro-5H-pyrazino[1,2-a][1,8]naphthyridine] | 0.0612 µM | 0.0934 µM |  | 100 µM |  |  |  |
| c1cc(C2CCC2)c2c(n1)N1CCNC[C@H]1CC2 [Compound 149, (R)-4-cyclobutyl-6,6a,7,8,9,10-hexahydro-5H-pyrazino[1,2-a][1,8]naphthyridine] |  |  |  | 0.236 µM | 0.0103 µM |  |  |
| Clc1ccnc2c1CC[C@@H]1CNCCN21 [Compound 150, (R)-4-chloro-6,6a,7,8,9,10-hexahydro-5H-pyrazino[1,2-a][1,8]naphthyridine] |  |  | 1.33 µM |  |  | 0.0454 µM | 0.00519 µM |
| c1cc(C2CC2)c2c(n1)N1CCNC[C@H]1CC2 [Compound 151, (R)-4-cyclopropyl-6,6a,7,8,9,10-hexahydro-5H-pyrazino[1,2-a][1,8]naphthyridine] |  |  | 0.435 µM |  |  | 0.015 µM | 0.00622 µM |
| c1cc2c(cn1)N1CCNC[C@H]1CC2 [Compound 153, (R)-6,6a,7,8,9,10-hexahydro-5H-pyrazino[1,2-a][1,7]naphthyridine] | 0.779 µM | 0.329 µM |  | 100 µM |  |  |  |
| c1cc2c(c(CC3CCC3)n1)CC[C@@H]1CNCCN21 [Compound 154, (R)-7-(cyclobutylmethyl)-2,3,4,4a,5,6-hexahydro-1H-pyrazino[1,2-a][1,6]naphthyridine] |  |  | ≥ 100 µM |  |  | ≥ 100 µM | 5.58 µM |
| c1cc2c(cn1)CC[C@@H]1CNCCN21 [Compound 155, (R)-2,3,4,4a,5,6-hexahydro-1H-pyrazino[1,2-a][1,6]naphthyridine] |  |  | ≥ 100 µM |  |  | ≥ 100 µM | 100 µM |
| CC1CC2CNCCN2c2ncccc21 (stereo not drawn) [Compound 158, 5-methyl-6,6a,7,8,9,10-hexahydro-5H-pyrazino[1,2-a][1,8]naphthyridine] |  |  |  |  | 1.08 µM |  |  |
| CCc1c(COC(C)C)cnc2c1CC[C@@H]1CNCCN21 [Compound 163, (R)-4-ethyl-3-(isopropoxymethyl)-6,6a,7,8,9,10-hexahydro-5H-pyrazino[1,2-a][1,8]naphthyridine] |  |  |  |  | 0.468 µM |  |  |
| CCc1c(C2CCC2)cnc2c1CC[C@@H]1CNCCN21 [Compound 166, (R)-3-cyclobutyl-4-ethyl-6,6a,7,8,9,10-hexahydro-5H-pyrazino[1,2-a][1,8]naphthyridine] |  |  |  |  | 0.958 µM |  |  |
| CSc1nc(Cl)c2c(n1)N1CCNC[C@H]1CC2 [Compound 169, (R)-4-chloro-2-(methylthio)-6,6a,7,8,9,10-hexahydro-5H-pyrazino[1′,2′:1,6]pyrido[2,3-d]pyrimidine] |  |  |  |  | 0.129 µM |  |  |
| CCc1c(CC2CCCC2)cnc2c1CC[C@@H]1CNCCN21 [Compound 171, (R)-3-(cyclopentylmethyl)-4-ethyl-6,6a,7,8,9,10-hexahydro-5H-pyrazino[1,2-a][1,8]naphthyridine] |  |  |  |  | 0.351 µM |  |  |
| CCCc1cncc2c1CC[C@@H]1CNCCN21 [Compound 173, (R)-4-propyl-6,6a,7,8,9,10-hexahydro-5H-pyrazino[1,2-a][1,7]naphthyridine] |  |  |  |  | 0.044 µM |  |  |
